As a reminder, the solubility is the dissolved amount per volume that the medium holds. Low readings indicate a poorly soluble substance, high ones a readily soluble substance.

The test system of series [1] is cGAS pathway. Description: Whole blood (hWB) cytokine release assay (96-well, Bacmam stimulation, plasma IP-10 by Meso-Scale Discovery plates). Type of series: cell-based. As to conditions: Table 4, human whole blood from individual healthy donors, 6 h; for IC50: Homo sapiens, read-out: hWB pXC50 (converted). The method, then:
The whole blood (hWB) cytokine release assay was performed as follows.
Human whole blood was collected from individual healthy donors into a 60 ml syringe containing sodium heparin (5 ml sodium heparin per syringe; Cat #309653, Becton-Dickinson, NJ, US). In a biosafety cabinet, 140 ul of the collected blood was transferred to each well of a 96-well flat bottom plate (Cat #167008, VWR, PA, US). The DMSO stock solution of small molecule cGAS inhibitor (10 mM stock solution) was diluted in PBS to prepare 10× solutions (3-fold dilutions) and 20 ul of the prepared 10× solutions was added to appropriate wells. Plates were shaken for 5 minutes at room temperature then incubated at 37° C. for 30 minutes. The stock solution of purified Bacmam was diluted with PBS+0.1% BSA to prepare a 4% (v/v) solution (10×). To activate the cGAS pathway, 20 uL of Bacmam was added to the blood, and the plates were shaken for 10 minutes at room temperature. PBS was added to achieve a final volume of 200 ul. Plates were then incubated at 37° C. for 6 hours.
Plates were removed from incubator and 100 uL/well PBS added. Plates were gently shaken for 10 minutes at room temperature and centrifuged (3000 rpm, 10 minutes) at room temperature. The plasma layer was removed and transferred to a separate 96-well plate and maintained at −80° C.
Plasma samples were measured for IP-10 levels using the IP-10 detection (U-plex or V-plex) plates (Cat #K151-UFK-4; Cat #K151-NVD-4; Meso-Scale Discovery, Inc.).

The target in series [2] is human CGAS (157-522) (Homo sapiens, UniProt Q8N884). Description: biochemical.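 Also: biochemical enzyme reaction, 2′3′-cGAMP product measured by RapidFire mass spectrometry (MRM) normalised to c-di-UMP internal standard, inhibition of product formation relative to high and low control wells.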
Series [3] can be described thus: FaSSIF solubility (Fasted State Simulated Intestinal Fluid). It counts as physicochemical. As to conditions: thermodynamic from solid, FaSSIF pH 6.5, 4 h equilibration at room temperature, dynamic range 1-1000 μg/mL. The method, then:
1 mL of FaSSIF buffer (3 mM sodium taurocholate, 0.75 mM lecithin in sodium phosphate buffer at pH 6.5) was added to manually weighed 1 mg of the solid compound in a 4 mL vial. […] The residual solid was removed by filtration. The supernatant solution was quantified by HPLC-UV using single point calibration of a known concentration of the compound in DMSO. The dynamic range of the assay was 1-1000 μg/mL.

For series [4], the system named is CGAS. In words: CGAS whole blood cytokine release assay (384-well, BacMam stimulation, IP-10 by cytometric bead array). It counts as cell-based. The note with it: Homo sapiens, 6 h; read-out: hWB pXC50 (converted). The essentials:
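Heparinised human donor whole blood mixed with serially diluted compound plus Null BacMam stimulus, incubated 6 h at 37° C, 5% CO2. Supernatant IP-10 quantified by cytometric bead array on flow cytometer (488 nm excitation, 585/40 nm emission); inhibition of IP-10 calculated.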

Values after ≈ are worked out from the molar mass of the structure shown. Values joined by “and” are separate entries in the source; they are usually repeats but may differ in a detail not shown here. Equal values may be shown once. Where only a bound is given, the exact number is not on record here.

Sequence of human CGAS (157-522) (Q8N884 157-522): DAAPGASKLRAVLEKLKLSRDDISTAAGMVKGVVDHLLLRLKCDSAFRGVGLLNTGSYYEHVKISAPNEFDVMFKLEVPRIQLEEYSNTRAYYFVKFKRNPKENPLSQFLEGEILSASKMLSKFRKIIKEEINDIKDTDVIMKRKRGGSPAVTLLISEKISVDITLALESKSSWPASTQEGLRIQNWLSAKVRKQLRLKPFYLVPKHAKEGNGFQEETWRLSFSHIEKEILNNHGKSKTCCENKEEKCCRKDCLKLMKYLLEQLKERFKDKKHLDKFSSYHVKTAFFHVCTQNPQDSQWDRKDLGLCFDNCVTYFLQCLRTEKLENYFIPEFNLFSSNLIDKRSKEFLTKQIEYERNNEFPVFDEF

As to `COc1nc2c(-n3ccnc3)c(-c3nnc(C(F)(F)F)[nH]3)[nH]c2cc1Cl`, the “hWB pXC50” value in series [1] is < 4.5 and 5.0. Further, in series [2], the IC50 was 63.1 nM.

As for `Fc1cnc2nc(-c3nc(C(F)(F)F)n[nH]3)c(-c3cnc[nH]3)n2c1` [Example 2, 5-[6-fluoro-3-(1H-imidazol-5-yl)imidazo[1,2-a]pyrimidin-2-yl]-3-(trifluoromethyl)-1H-1,2,4-triazole], the IC50 in series [1] was 251 nM; in series [2], 3.98 nM; in series [4] it was 316 nM. Besides, the solubility at 4 h in series [3] is 5 µg/mL (≈ 14.8 µM).

As for `FC(F)(F)c1nnc(-c2[nH]c3c(Cl)c(Cl)ccc3c2-c2cn[nH]c2)[nH]1` [WO 2022/137085 Example 11], in series [1], the IC50 was greater than 31600 nM and the “hWB pXC50” value came out at 4.6.

As to `Cn1c(-c2nnc(C(F)(F)F)[nH]2)c(-n2ccnc2)c2ccc(Cl)c(Cl)c21` [WO 2022/137085 Example 109], in series [1], the IC50 was greater than 31600 nM and the “hWB pXC50” value was <4.5, <4.5.

These data come from US12247033B2, “Triazole-substituted imidazo[1,2-a]pyrimidines as cGAS inhibitors” (GlaxoSmithKline Intellectual Property Development Limited, priority 2022, dated 2025).
